Source: US10953027B2, “Active agents and methods of their use for the treatment of metabolic disorders and nonalcoholic fatty liver disease” (Flagship Pioneering Innovations V, Inc., priority 2018, dated 2021)

What was measured:
Caco-2 colonocytes = assay: Human Caco-2 barrier integrity assay (TEER); format: cell-based; details: 48 hours
Experimental: Caco-2 colonocytes were maintained at 37° C. and 5% CO2 in Dulbecco's Modified Eagle Medium (DMEM) and supplemented with 10% FBS, 1% NEAA, 1% penicillin-streptomycin. At 70-80% confluency, cells were trypsinized and seeded in 0.4 cm^2 transwell collagen I coated membranes with supplemented DMEM in both apical and basolateral compartments. Cells were seeded at a density of 200,000 cells per well and maintained for 10 days to form a polarized barrier with a TransEpithelial Electrial Resistance (TEER) reading above 1000Ω. On the first day of the assay, initial TEER readings were taken and cytokines were added to the basolateral media (50 ng/mL TNFα, 25 ng/mL IFNγ and 10 ng/mL IL-1β) to reduce barrier integrity while compounds diluted in (dimethylsulfoxide) DMSO were added to the apical media in triplicate. After 48 hours, TEER readings were taken again and viability was measured by CellTiter 96® AQueous One Solution Cell Proliferation Assay (Promega). The percent change in TEER over the 48 hours was determined and normalized to the 0.1% DMSO control (Table 6).

Mouse myocyte = Mouse myocyte lipolysis assay; format: cell-based; details: Mus musculus, read-out: Free glycerol % DMSO
Experimental: Cells were obtained from ATCC and cultured in Dulbecco's Modified Eagle's medium (DMEM) containing 20% fetal bovine serum and 1% penicillin/streptomycin at 37° C. in an incubator with 5% CO2. Once the cells became confluent, they were seeded into a tissue culture treated 96 well plate. The next day, the medium containing DMEM with 2% equine serum was used to start differentiation. Once cells were fully differentiated, they were treated with indicated compounds.

Mouse 3T3-L1 cells = assay: Mouse adipocyte lipolysis assay; format: cell-based; details: Mus musculus, 3T3-L1, 24 hours, read-out: Lipolysis Free Fatty Acids % DMSO
Experimental: Once the cells became confluent, they were seeded into a tissue culture treated 96 well plate. […] After 14 days of differentiation, cells were treated with compounds of interest. After 24 hours post-treatment, the cell viability was assessed using CellTiter-Glo Luminescent Cell Viability Assay from Promega, and lipolysis was determined using Lipolysis Assay Kit from ZenBio.

[1] = system: Human Peripheral Blood Monocytes (PBMCs); assay: Cytokine release from human PBMCs; format: cell-based; details: 100 μM, LPS, 24 hours
Experimental: Human donor blood (8 mL) was collected in sodium citrate CPT tubes and centrifuged at 1,600×g for 20 minutes at room temperature. […] PBMCs samples were centrifuged at 400×g for 10 minutes at 10° C. […] PBMCs were filtered through a 70 micron mesh to remove any cellular debris. […] PBMCs in a 96-well plate were rested for 30 minutes in a 37° C., 5% CO2 incubator, then subsequently treated with 10 μl of indicated compound. After 2 hours 10 μL of LPS (O111:B4) 1 mg/mL was added to test wells. After 24 hours of incubation at 37° C., 5% CO2, 100 μL of cell supernatant was collected and transferred to a 96-well plate (non-tissue treated, flat bottom). The plate was centrifuged at 350×g for 5 minutes at room temperature, and then the clear supernatant transferred to a new 96-well plate (non-tissue treated, flat bottom). The remaining cells were tested for viability using CellTiter-Glo® Luminescent Cell Viability Assay (Promega). The supernatant was analyzed for TNFα, IL-6 and IL-1β (kit LXSAHM-03; R&D Systems), using Luminex Immunoassay Technology (MAGPIX System). Cytokine levels of LPS treated DMSO control samples were set to 100%, and compound treated samples were expressed relative to this (Table 13).

[2] = system: Primary human subcutaneous adipocytes; assay: Glucose uptake in human subcutaneous adipocytes, insulin sensitive model; format: cell-based
Experimental: Primary human subcutaneous adipocytes (Zen Bio, Research Triangle Park, N.C.) were differentiated for two weeks prior to treatment. Cells were treated with indicated compounds diluted in (dimethyl-sulfoxide) DMSO in serum free medium for 24 hours in triplicate. After 24 hours, media was exchanged for assay buffer and the compounds were added again but in the presence of approximately 1 nM insulin. Glucose uptake was initiated with the addition of a cocktail containing 2-deoxyglucose and ^3H-2-deoxyglucose and allowed to incubate for 2 hours. Cells were washed, lysed and glucose uptake was measured as counts per well. As an assay control, 100 nM of insulin was used during the 2 hours of glucose uptake. […] Statistical changes in glucose uptake were determined by way ANOVA and compared to DMSO.

[3] = system: Primary human subcutaneous adipocytes; assay: Glucose uptake in human subcutaneous adipocytes, insulin resistant model; format: cell-based
Experimental: As described above, primary human subcutaneous adipocytes were differentiated for two weeks prior to treatment. To induce an insulin resistant state, cells were treated in serum free Dulbecco's Modified Eagle Medium (high glucose) and […] for 24 hours. Cells were simultaneously treated with compounds diluted in DMSO for 24 hours. As described above, after 24 hours, media was exchanged for assay buffer and the compounds were added again but in the presence of approximately 1 nM insulin. Cells were washed and lysed after 2 hours and glucose uptake was measured. […] Statistical changes in glucose uptake were determined by way ANOVA and compared to DMSO.

naïve CD4+ T cells = assay: Human regulatory T cell differentiation assay; format: cell-based; details: 6 days
Experimental: Peripheral blood mononuclear cells (PBMCs) from whole blood donated by health volunteers were separated by Ficoll-Paque gradient centrifugation and naïve CD4^+ T cells were subsequently isolated using magnet beads (EasySep™ Human Naïve CD4^+ T Cell Isolation Kit, Cambridge, Mass.). For regulatory T cell (Treg) differentiation assay, naïve CD4^+ T cells were cultured (1-10×10^4 cells) in CTS OpTmizer medium for 6 days and stimulated with 5 ng/ml TGF-β, 100 U/ml IL-2, and ImmunoCult™ Human […] T Cell Activator; Stemcell #10990) with/without our Compounds. Cell viability was determined using a viability dye (eBioscience Fixable Viability Dye eFluor 780: ThermoFisher 65-0865-14) at 1:500 dilution. The cells were gated for Treg, defined as Live, CD11c^−, CD14^−, CD19^−, CD8^−, CD4^+, CD3^+, CD25^+, FOXP3^+. Percent (%) Tregs were calculated as percentage of CD4^+, CD25^+, FOXP3^+ cells over total CD4^+ T cells. Statistical analysis was performed with GraphPad Prism Software Using One-Way ANOVA.

AhR = AhR activation in Caco-2 cells through CYP1A1 mRNA expression
Experimental: Caco-2 cells from American Type Culture Collection (ATCC) were plated in a sterile tissue culture treated 96-well plate (ThermoFisher) at […] per well, and grown overnight at 37° C., 5% CO2 in DMEM complete (Gibco) in order to achieve confluence. After the incubation medium was aspirated from the Caco-2 monolayers, tissues were then washed with 200 μL of warmed PBS solution, and subsequently 190 μL of pre-warmed growth medium was added to each well. Compounds of interest were diluted at a 20× concentration in growth medium containing 2% DMSO, and 10 μL of compound solutions were added to respective wells in triplicate. Compounds where incubated overnight at 37° C., 5% CO2. 2-(1′H-indole-3′-carbonyl)-thiazole-4-carboxylic acid methyl ester (ITE) was used as the positive control for AhR activation at 1 and 100 μM concentrations. At the end of the incubation, medium was aspirated off of the Caco-2 cells, and washed with 100 μL of cold PBS solution. RNA was extracted via the TaqMan™ Gene Expression Cells-to-CT™ Kit (ThermoFisher) according to the manufacturers protocol. The QuantStudio 6 Flex (Applied Biosciences) was used to analyze mRNA levels of CYP1A1 using GAPDH as the endogenous control. TaqMan™ probe sets for both genes were acquired from ThermoFisher. Samples were run in triplicate and data was analyzed using the QuantStudio software and reported as linear (Table 1) and log 2(ΔΔCT) values. Statistical analysis was performed using a two-tailed t-test comparing CYP1A1 levels in the presence of each individual compound to the vehicle negative control.

CC(=O)O [Acetate, acetic acid]
% Change in TEER from DMSO (Caco-2 colonocytes; 1 mM + cytokines): − (≤125%: −) | % Change in TEER from DMSO (Caco-2 colonocytes; 3 mM + cytokines): − (≤125%: −) | activity at 1000 µM (Mouse myocyte; 1 mM): 90 to 100% | activity at 3000 µM (Mouse myocyte; 3 mM): 90 to 100% | activity at 1000 µM (Mouse 3T3-L1 cells; 1 mM): 50 to 70% | activity at 3000 µM (Mouse 3T3-L1 cells; 3 mM): 50 to 70% | IL6 % DMSO control [1]: = ((=) 90%≥ <110% DMSO) | ILβ % DMSO control [1]: = ((=) 90%≥ <110% DMSO) | TNFα % of DMSO control [1]: = ((=) 90%≥ <110% DMSO) | Insulin Sensitive % DMSO (glucose uptake) ([2]; 1 mM): = (50%> ≤110%: =) | Insulin Sensitive % DMSO (glucose uptake) ([2]; 3 mM): = (50%> ≤110%: =) | Insulin Resistant % DMSO (glucose uptake) ([3]; 1 mM): = (50%> ≤110%: =) | Insulin Resistant % DMSO (glucose uptake) ([3]; 3 mM): = (50%> ≤110%: =) | Cell viability % DMSO (naïve CD4+ T cells; 1 mM): = (90%≥ ≤110%: =) | Cell viability % DMSO (naïve CD4+ T cells; 3 mM): = (90%≥ ≤110%: =) | activity at 1000 µM (naïve CD4+ T cells; Homo sapiens, CD4+ T, 144 h, 1 mM, read-out: Treg induction % DMSO): 110 to 130% | activity at 3000 µM (naïve CD4+ T cells; Homo sapiens, CD4+ T, 144 h, 3 mM, read-out: Treg induction % DMSO): > 130%

CCC(=O)O [Propionate, propionate]
% Change in TEER from DMSO (Caco-2 colonocytes; 1 mM + cytokines): + (125%> ≤150%: +) | % Change in TEER from DMSO (Caco-2 colonocytes; 3 mM + cytokines): ++ (150%≥ ≤200%: ++) | IL6 % DMSO control [1]: + ((+) 50%≥ <90% DMSO) | ILβ % DMSO control [1]: + ((+) 50%≥ <90% DMSO) | TNFα % of DMSO control [1]: + ((+) 50%≥ <90% DMSO) | Insulin Sensitive % DMSO (glucose uptake) ([2]; 3 mM): = (50%> ≤110%: =) | Insulin Resistant % DMSO (glucose uptake) ([3]; 3 mM): = (50%> ≤110%: =)

O=C(O)c1ccccc1 [Benzoic acid]
Average CYP1A1 mRNA levels (AhR; Conc. 10.0 μM): + (+ = >2-fold Vehicle) | Average CYP1A1 mRNA levels (AhR; Conc. 100.0 μM): + (+ = >2-fold Vehicle)

O=c1c(O)c(-c2ccc(O)c(O)c2)oc2cc(O)cc(O)c12 [Quercetin, quercetin]
% Change in TEER from DMSO (Caco-2 colonocytes; 1 μM + cytokines): + (125%> ≤150%: +) | % Change in TEER from DMSO (Caco-2 colonocytes; 100 μM + cytokines): − (≤125%: −) | activity at 0.1 µM (Mouse myocyte; 100 nM): 70 to 90% | activity at 1 µM (Mouse myocyte; 1 μM): 70 to 90% | activity at 0.1 µM (Mouse 3T3-L1 cells; 100 nM): 50 to 70% | activity at 1 µM (Mouse 3T3-L1 cells; 1 μM): 50 to 70% | IL6 % DMSO control [1]: + ((+) 50%≥ <90% DMSO) | ILβ % DMSO control [1]: + ((+) 50%≥ <90% DMSO) | TNFα % of DMSO control [1]: + ((+) 50%≥ <90% DMSO) | Insulin Sensitive % DMSO (glucose uptake) ([2]; 100 nM): = (50%> ≤110%: =) | Insulin Sensitive % DMSO (glucose uptake) ([2]; 1 μM): = (50%> ≤110%: =) | Insulin Resistant % DMSO (glucose uptake) ([3]; 100 nM): = (50%> ≤110%: =) | Insulin Resistant % DMSO (glucose uptake) ([3]; 1 μM): = (50%> ≤110%: =) | Cell viability % DMSO (naïve CD4+ T cells; 100 nM): = (90%≥ ≤110%: =) | Cell viability % DMSO (naïve CD4+ T cells; 1 uM): = (90%≥ ≤110%: =) | activity at 0.1 µM (naïve CD4+ T cells; Homo sapiens, CD4+ T, 144 h, 100 nM, read-out: Treg induction % DMSO): 90 to 110% | activity at 1 µM (naïve CD4+ T cells; Homo sapiens, CD4+ T, 144 h, 1 uM, read-out: Treg induction % DMSO): 90 to 110%
